This experiment addresses T1, rat NaP2b (SLC34A2) (Rattus norvegicus, UniProt Q9JJ09).
T1 construct: host or cells: HEK293
T1 sequence (Q9JJ09 1-695): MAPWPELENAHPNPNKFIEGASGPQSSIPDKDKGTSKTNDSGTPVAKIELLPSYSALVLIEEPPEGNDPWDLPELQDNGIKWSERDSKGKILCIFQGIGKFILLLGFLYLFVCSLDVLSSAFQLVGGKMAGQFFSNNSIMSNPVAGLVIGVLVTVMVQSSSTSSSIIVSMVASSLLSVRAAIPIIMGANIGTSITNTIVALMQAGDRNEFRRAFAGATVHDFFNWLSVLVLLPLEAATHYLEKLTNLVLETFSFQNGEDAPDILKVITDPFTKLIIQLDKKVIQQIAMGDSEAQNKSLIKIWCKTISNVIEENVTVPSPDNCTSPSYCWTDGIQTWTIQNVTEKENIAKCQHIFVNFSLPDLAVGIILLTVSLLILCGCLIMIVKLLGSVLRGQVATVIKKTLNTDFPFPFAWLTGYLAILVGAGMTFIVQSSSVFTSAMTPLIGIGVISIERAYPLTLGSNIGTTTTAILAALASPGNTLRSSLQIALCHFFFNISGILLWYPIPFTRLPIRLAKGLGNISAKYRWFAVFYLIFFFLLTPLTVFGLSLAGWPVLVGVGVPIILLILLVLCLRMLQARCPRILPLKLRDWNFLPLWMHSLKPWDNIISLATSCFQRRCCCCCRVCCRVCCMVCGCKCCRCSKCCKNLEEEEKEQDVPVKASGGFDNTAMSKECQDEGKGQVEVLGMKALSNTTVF
In words: Inhibition of NaP2b-mediated Pi (33P) uptake in transfected HEK293 cells, rat NaP2b. Format: cell-based. As to conditions: 33P Pi uptake, 0.1 mM phosphate, value given as pIC50 range. The procedure:
HEK293 cells were obtained from the American Type Culture collection and propagated per their instructions. […] The sequence of the human protein was mutated to insert a threonine after residue 37, and to introduce a N39D mutation.
Cells were seeded into 96-well plates at 25,000 cells/well and cultured overnight. Lipofectamine 2000 (Invitrogen) was used to introduce the NaP2b cDNA, and the cells were allowed to approach confluence during a second overnight incubation. […] Each compound was tested at twelve concentrations ranging from 0.1 nM to 30 uM. Assays were run in duplicate.
Cells were lysed by addition of 20 μL 0.1% Tween 80 followed by 100 μL scintillation fluid, and counted using a TopCount (Perkin Elmer).
pIC50 (the negative log of the IC50) values of the test compounds were calculated using GraphPad Prism.
On to `CN(CCOCCOCCOCCC(=O)O)Cc1cccc(C(=O)Nc2ccc(N3CCCCC3)cc2-c2cc(C(=O)NCc3cccc(C(F)(F)F)c3)ccn2)c1` [Example 43, 2-Methyl-1-(3-((4-(piperidin-1-yl)-2-(4-((3-(trifluoromethyl)benzyl)carbamoyl)pyridin-2-yl)phenyl)carbamoyl)phenyl)-5,8,11-trioxa-2-azatetradecan-14-oic acid], for which the half-inhibitory concentration (IC50) is 10 to 31.6 µM.

The compound `O=C(O)CCSCc1cccc(C(=O)Nc2ccc(N3CCCCC3)cc2-c2cc(C(=O)NCc3cccc(-c4ccccc4)c3)ccn2)c1` [Example 1.42] gave an IC50 of 1 to 7.94 µM.

With `O=C(O)CCSCc1cccc(C(=O)Nc2ccc(N3CCCCC3)cc2-c2cc(C(=O)Nc3nc4ccccc4[nH]3)ccn2)c1` [Example 1.19], the IC50 is 10 to 31.6 µM.

Take `CN(CCc1ccccn1)C(=O)c1cccc(C(=O)Nc2ccc(N3CCCCC3)cc2-c2cc(C(=O)NCc3cccc(C(F)(F)F)c3)ccn2)c1` [Example 110]: the IC50 is 1 to 7.94 µM.

Consider `CN(CCN1CCOCC1)C(=O)Cc1cccc(SCc2cccc(C(=O)Nc3ccc(N4CCCCC4)cc3-c3cc(C(=O)NCc4cccc(C(F)(F)F)c4)ccn3)c2)c1` [Example 136, 2-(2-(3-((3-(2-(methyl(2-morpholinoethyl)amino)-2-oxoethyl)phenylthio)methyl)benzamido)-5-(piperidin-1-yl)phenyl)-N-(3-(trifluoromethyl)benzyl)isonicotinamide], for which the concentration for half-maximal inhibition (IC50) is 1 to 7.94 µM.

Turning to `CN(Cc1cccc(C(=O)O)c1)C(=O)c1cccc(C(=O)Nc2ccc(N3CCCCC3)cc2-c2cc(C(=O)NCc3cccc(C(F)(F)F)c3)ccn2)c1` [Example 4.32, 3-((N-Methyl-3-(4-(piperidin-1-yl)-2-(4-(3-(trifluoromethyl)benzylcarbamoyl)pyridin-2-yl)phenylcarbamoyl)benzamido)methyl)benzoic acid], the IC50 is 1 to 7.94 µM.

As to `O=C(O)CCSCc1cccc(C(=O)Nc2ccc(N3CCCCC3)cc2-c2cc(C(=O)NCc3ccccc3OC(F)(F)F)ccn2)c1` [Example 1.43], the IC50 was 1 to 7.94 µM.

In turn, `O=C(O)CCSCc1cccc(C(=O)Nc2ccc(N3CCCCC3)cc2-c2cc(C(=O)NCc3ccc(Oc4ccccc4)cc3)ccn2)c1` [Example 1.40] had an IC50 of 1 to 7.94 µM.

Turning to `O=C(NCCN1CCOCC1)c1cccc(SCc2cccc(C(=O)Nc3ccc(N4CCCCC4)cc3-c3cc(C(=O)NCc4cccc(C(F)(F)F)c4)ccn3)c2)c1` [Example 10.6], the IC50 is 1 to 7.94 µM.

In turn, `COCCN(C)CCN(C)C(=O)c1cccc(C(=O)Nc2ccc(N3CCCCC3)cc2-c2cc(C(=O)NCc3cccc(C(F)(F)F)c3)ccn2)c1` [Example 4.20.2, N1-(2-((2-Methoxyethyl)(methyl)amino)ethyl)-N1-methyl-N3-(4-(piperidin-1-yl)-2-(4-((3-(trifluoromethyl)benzyl)carbamoyl)pyridin-2-yl)phenyl)isophthalamide] had a 50% inhibitory concentration (IC50) of 1 to 7.94 µM.

`O=C(O)CCSCc1cccc(C(=O)Nc2ccc(N3CCCCC3)cc2-c2cc(Nc3cccc(C(F)(F)F)c3)ccn2)c1` [Example 72, 3-((3-((4-(Piperidin-1-yl)-2-(4-((3-(trifluoromethyl)phenyl)amino)pyridin-2-yl)phenyl)carbamoyl)benzyl)thio)propanoic acid] gave an IC50 of 10 to 31.6 µM.

With `O=C(O)c1ccc(SCc2cccc(C(=O)Nc3ccc(N4CCCCC4)cc3-c3cc(C(=O)NCc4cccc(C(F)(F)F)c4)ccn3)c2)nc1` [Example 8.15], the IC50 was 1 to 7.94 µM.

In the case of `O=C(O)CCSCc1cccc(C(=O)Nc2ccc(N3CCCCC3)cc2-c2cc(C(=O)NCc3cccc(C(F)(F)F)c3)cc(Cl)n2)c1` [Example 86], the half-maximal inhibitory concentration (IC50) was 1 to 7.94 µM.

As to `CCN(CC)c1ccc(NC(=O)c2cccc(C(=O)N(C)CCN(C)CCOCCOCCOCCNC(=O)C(C)(C)C)c2)c(-c2cc(C(=O)NCc3cccc(C(F)(F)F)c3)ccn2)c1` [Example 346, N2-(4-(diethylamino)-2-(4-(3-(trifluoromethyl)benzylcarbamoyl)pyridin-2-yl)phenyl)-N^3-methyl-N^3-(3,17,17-trimethyl-16-oxo-6,9,12-trioxa-3,15-diazaoctadecyl)isophthalamide], the “pIC50 range for rat Nap2b” value is 5.1-6.0.

(Values after patent US20140023611A1 (priority 2010, published 2014).)
